Biological target: HsClpP (Homo sapiens, UniProt Q16740)
Assay: HsClpP enzyme hydrolysis of short peptide substrate AC-WLA-AMC
Conditions: promoting hydrolysis of short peptide substrate by HsClpP, relative to blank control

Sequence of HsClpP (Q16740 57-277): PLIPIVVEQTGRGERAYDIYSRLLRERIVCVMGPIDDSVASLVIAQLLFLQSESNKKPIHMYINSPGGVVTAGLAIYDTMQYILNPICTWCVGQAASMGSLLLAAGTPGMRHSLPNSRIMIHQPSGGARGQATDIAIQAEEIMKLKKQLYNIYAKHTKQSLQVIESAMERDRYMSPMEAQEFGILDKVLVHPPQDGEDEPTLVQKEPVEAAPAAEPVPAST

Q: CCN1CCn2c1nc(=O)c1c2CCN(Cc2ccccc2)C1 [Compound 3, 7-benzyl-3-ethyl-2,3,6,7,8,9-hexahydroimidazo[1,2-a]pyrido[3,4-e]pyrimidin-5(1H)-one] was tested. Which “Regulatory efficacy 1 μM” value did it give?
A: The value was “+ (+ indicating that the increased efficacy is less than 50% of the blank control group)”.

Q: What about the “Regulatory efficacy 10 μM” value of the same molecule?
A: The value was “+ (+ indicating that the increased efficacy is less than 50% of the blank control group)”.

Q: How did the “Regulatory efficacy 1 μM” value turn out when CC(C)CCN1CCn2c1nc(=O)c1c2CCN(Cc2ccccc2)C1 [Compound 4, 7-benzyl-3-isopentyl-2,3,6,7,8,9-hexahydroimidazo[1,2-a]pyrido[3,4-e]pyrimidin-5(1H)-one] was run?
A: Its value is “+ +”.

Q: What about the “Regulatory efficacy 10 μM” value of the same molecule?
A: Its value is “+ +”.

Q: Which “Regulatory efficacy 1 μM” value does the source give for O=c1nc2n(c3c1CN(Cc1ccccc1)CC3)CCN2c1ccccc1 [Compound 9, 7-benzyl-3-phenyl-2,3,6,7,8,9-hexahydroimidazo[1,2-a]pyrido[3,4-e]pyrimidin-5(1H)-one] here?
A: Its value is “+ (+ indicating that the increased efficacy is less than 50% of the blank control group)”.

Q: And the “Regulatory efficacy 10 μM” value?
A: Its value is “+ +”.

Q: With O=c1nc2n(c3c1CN(Cc1ccccc1)CC3)CCN2CCc1ccccc1 [Compound 10, 7-benzyl-3-(phenylethyl)-2,3,6,7,8,9-hexahydroimidazo[1,2-a]pyrido[3,4-e]pyrimidin-5(1H)-one] as the molecule, how does the “Regulatory efficacy 1 μM” value read?
A: The value was “+ +”.

Q: What about the “Regulatory efficacy 10 μM” value of the same molecule?
A: Its value is “+ +”.

Q: With O=c1nc2n(c3c1CN(Cc1ccccc1)CC3)CCN2Cc1cccnc1 [Compound 23, 7-benzyl-3-(3-pyridinylmethyl)-2,3,6,7,8,9-hexahydroimidazo[1,2-a]pyrido[3,4-e]pyrimidin-5(1H)-one] as the molecule, how does the “Regulatory efficacy 1 μM” value read?
A: Its value is “+ (+ indicating that the increased efficacy is less than 50% of the blank control group)”.

Q: What about the “Regulatory efficacy 10 μM” value of the same molecule?
A: The value was “+ +”.

Q: Which results are given for O=c1nc2n(c3c1CN(Cc1ccccc1)CC3)CCN2Cc1ccncc1 [Compound 24, 7-benzyl-3-(4-pyridinylmethyl)-2,3,6,7,8,9-hexahydroimidazo[1,2-a]pyrido[3,4-e]pyrimidin-5(1H)-one]?
A: Regulatory efficacy 1 μM: + (+ indicating that the increased efficacy is less than 50% of the blank control group); Regulatory efficacy 10 μM: + +

Q: O=c1nc2n(c3c1CN(Cc1ccccc1)CC3)CCN2Cc1ccco1 [Compound 25, 7-benzyl-3-(2-furfuryl)-2,3,6,7,8,9-hexahydroimidazo[1,2-a]pyrido[3,4-e]pyrimidin-5(1H)-one] was tested. Which “Regulatory efficacy 1 μM” value did it give?
A: Its value is “+ (+ indicating that the increased efficacy is less than 50% of the blank control group)”.

Q: What about the “Regulatory efficacy 10 μM” value of the same molecule?
A: Its value is “+ +”.

Q: What does the source list for Cc1ccccc1CN1CCn2c1nc(=O)c1c2CCN(C(=O)OC(C)(C)C)C1 [Compound 27, 7-tert-butoxycarbonyl-3-(2-methylbenzyl)-2,3,6,7,8,9-hexahydroimidazo[1,2-a]pyrido[3,4-e]pyrimid in-5(1H)-one]?
A: Regulatory efficacy 1 μM: + +; Regulatory efficacy 10 μM: + +

Q: Which results are given for Cc1ccccc1CN1CCn2c1nc(=O)c1c2CCN(CC(C)C)C1 [Compound 29, 7-isobutyl-3-(2-methylbenzyl)-2,3,6,7,8,9-hexahydroimidazo[1,2-a]pyrido[3,4-e]pyrimidin-5(1H)-one]?
A: Regulatory efficacy 1 μM: + (+ indicating that the increased efficacy is less than 50% of the blank control group); Regulatory efficacy 10 μM: + (+ indicating that the increased efficacy is less than 50% of the blank control group)

Q: For Cc1ccccc1CN1CCn2c1nc(=O)c1c2CCN(CC2CC2)C1 [Compound 30], which “Regulatory efficacy 1 μM” value is on record?
A: The value was “+ (+ indicating that the increased efficacy is less than 50% of the blank control group)”.

Q: What about the “Regulatory efficacy 10 μM” value of the same molecule?
A: The value was “+ (+ indicating that the increased efficacy is less than 50% of the blank control group)”.

Q: Which results are given for Cc1ccccc1CN1CCn2c1nc(=O)c1c2CCN(CC2CCCCC2)C1 [Compound 31, 7-cyclohexylmethyl-3-(2-methylbenzyl)-2,3,6,7,8,9-hexahydroimidazo[1,2-a]pyrido[3,4-e]pyrimidin-5(1H)-one]?
A: Regulatory efficacy 1 μM: + (+ indicating that the increased efficacy is less than 50% of the blank control group); Regulatory efficacy 10 μM: + +

Q: With Cc1ccc(CN2CCc3c(c(=O)nc4n3CCN4Cc3ccccc3C)C2)cc1 [Compound 33, 3-(2-methylbenzyl)-7-(4-methylbenzyl)-2,3,6,7,8,9-hexahydroimidazo[1,2-a]pyrido[3,4-e]pyrimidin-5(1H)-one] as the molecule, how does the “Regulatory efficacy 1 μM” value read?
A: The value was “+ +”.

Q: What about the “Regulatory efficacy 10 μM” value of the same molecule?
A: The value was “+ +”.

Q: For Cc1ccccc1CN1CCn2c1nc(=O)c1c2CCN(Cc2ccccc2C#N)C1 [Compound 34, 2-((3-(2-methylbenzyl)-5-oxo-2,3,6,7,8,9-hexahydroimidazo[1,2-a]pyrido[3,4-e]pyrimidin-7(6H)-yl)methyl)benzonitrile], which “Regulatory efficacy 1 μM” value is on record?
A: The value was “+ +”.

Q: And the “Regulatory efficacy 10 μM” value?
A: Its value is “+ +”.

Q: How did the “Regulatory efficacy 1 μM” value turn out when Cc1ccccc1CN1CCn2c1nc(=O)c1c2CCN(Cc2ccc(F)c(F)c2)C1 [Compound 36, 7-(3,4-difluorobenzyl)-3-(2-methylbenzyl)-2,3,6,7,8,9-hexahydroimidazo[1,2-a]pyrido[3,4-e]pyrimidin-5(1H)-one] was run?
A: The value was “+ +”.

Q: And the “Regulatory efficacy 10 μM” value?
A: Its value is “+ +”.

Q: Which “Regulatory efficacy 1 μM” value does the source give for Cc1ccccc1CN1CCn2c1nc(=O)c1c2CCN(Cc2ccc(F)cc2F)C1 [Compound 37, 7-(2,4-difluorobenzyl)-3-(2-methylbenzyl)-2,3,6,7,8,9-hexahydroimidazo[1,2-a]pyrido[3,4-e]pyrimidin-5(1H)-one] here?
A: Its value is “+ (+ indicating that the increased efficacy is less than 50% of the blank control group)”.

Q: And the “Regulatory efficacy 10 μM” value?
A: The value was “+ +”.

Q: What does the source list for Cc1ccccc1CN1CCn2c1nc(=O)c1c2CCN(Cc2ccc(F)cc2)C1 [Compound 38, 7-(4-fluorobenzyl)-3-(2-methylbenzyl)-2,3,6,7,8,9-hexahydroimidazo[1,2-a]pyrido[3,4-e]pyrimidin-5(1H)-one]?
A: Regulatory efficacy 1 μM: + +; Regulatory efficacy 10 μM: + +

Q: Cc1ccccc1CN1CCn2c1nc(=O)c1c2CCN(C(=O)Cc2ccccc2)C1 [Compound 40, 3-(2-methylbenzyl)-7-(2-phenylacetyl)-2,3,6,7,8,9-hexahydroimidazo[1,2-a]pyrido[3,4-e]pyrimidin-5(1H)-one] was tested. Which “Regulatory efficacy 1 μM” value did it give?
A: The value was “+ (+ indicating that the increased efficacy is less than 50% of the blank control group)”.

Q: And the “Regulatory efficacy 10 μM” value?
A: The value was “+ (+ indicating that the increased efficacy is less than 50% of the blank control group)”.

Q: Cc1ccccc1CN1CCn2c1nc(=O)c1c2CCN(CCCCc2ccccc2)C1 [Compound 41, 3-(2-methylbenzyl)-7-(4-phenylbutyl)-2,3,6,7,8,9-hexahydroimidazo[1,2-a]pyrido[3,4-e]pyrimidin-5 (1H)-one] was tested. Which “Regulatory efficacy 1 μM” value did it give?
A: Its value is “+ (+ indicating that the increased efficacy is less than 50% of the blank control group)”.

Q: What about the “Regulatory efficacy 10 μM” value of the same molecule?
A: The value was “+ (+ indicating that the increased efficacy is less than 50% of the blank control group)”.

Q: With Cc1ccccc1CN1CCn2c1nc(=O)c1c2CCN(CCc2ccccc2)C1 [Compound 42, 3-(2-methylbenzyl)-7-phenethyl-2,3,6,7,8,9-hexahydroimidazo[1,2-a]pyrido[3,4-e]pyrimidin-5(1H)-one] as the molecule, how does the “Regulatory efficacy 1 μM” value read?
A: The value was “+ (+ indicating that the increased efficacy is less than 50% of the blank control group)”.

Q: What about the “Regulatory efficacy 10 μM” value of the same molecule?
A: The value was “+ +”.

Q: For Cc1ccccc1CN1CCn2c1nc(=O)c1c2CCN(Cc2cccnc2)C1 [Compound 43, 3-(2-methylbenzyl)-7-(pyridin-3-methyl)-2,3,6,7,8,9-hexahydroimidazo[1,2-a]pyrido[3,4-e]pyrimidi n-5(1H)-one], which “Regulatory efficacy 1 μM” value is on record?
A: The value was “+ (+ indicating that the increased efficacy is less than 50% of the blank control group)”.

Q: And the “Regulatory efficacy 10 μM” value?
A: Its value is “+ +”.

Q: How did the “Regulatory efficacy 1 μM” value turn out when Cc1ccccc1CN1CCn2c1nc(=O)c1c2CCN(Cc2ccncc2)C1 [Compound 44, 3-(2-methylbenzyl)-7-(pyridin-4-methyl)-2,3,6,7,8,9-hexahydroimidazo[1,2-a]pyrido[3,4-e]pyrimidi n-5(1H)-one] was run?
A: Its value is “+ (+ indicating that the increased efficacy is less than 50% of the blank control group)”.

Q: And the “Regulatory efficacy 10 μM” value?
A: Its value is “+ +”.

Q: How did the “Regulatory efficacy 1 μM” value turn out when Cc1ccccc1CN1CCn2c1nc(=O)c1c2CCN(c2nncs2)C1 [Compound 45, 3-(2-methylbenzyl)-7-(1,3,4-thiadiazol-2-yl)-2,3,6,7,8,9-hexahydroimidazo[1,2-a]pyrido[3,4-e]pyri midin-5(1H)-one] was run?
A: The value was “+ (+ indicating that the increased efficacy is less than 50% of the blank control group)”.

Q: And the “Regulatory efficacy 10 μM” value?
A: Its value is “+ (+ indicating that the increased efficacy is less than 50% of the blank control group)”.

Q: Cc1ccccc1CN1CCCn2c1nc(=O)c1c2CCN(Cc2ccccc2)C1 [Compound 46, 3-Benzyl-7-(2-methylbenzyl)-1,2,3,4,7,8,9, 10-octahydro-5H-pyrido[3,4-e]pyrimido[1,2-a] pyrimidin-5-one] was tested. Which “Regulatory efficacy 1 μM” value did it give?
A: Its value is “+ (+ indicating that the increased efficacy is less than 50% of the blank control group)”.

Q: What about the “Regulatory efficacy 10 μM” value of the same molecule?
A: The value was “+ +”.

Q: Which results are given for Cc1ccccc1CN1CCn2c1nc(=O)c1c2C(F)(F)CN(Cc2ccccc2)C1 [Compound 47, 7-Benzyl-9,9-difluoro-3-(2-methylbenzyl)-2,3,6,7,8,9-hexahydroimidazo[1,2-a]pyrido[3,4-e]pyrimid in-5(1H)-one]?
A: Regulatory efficacy 1 μM: + +; Regulatory efficacy 10 μM: + +

Q: How did the “Regulatory efficacy 1 μM” value turn out when Cc1cccc(CN2CCn3c2nc(=O)c2c3C(F)(F)CN(Cc3ccccc3)C2)c1 [Compound 48, 7-Benzyl-9,9-difluoro-3-(3-methylbenzyl)-2,3,6,7,8,9-hexahydroimidazo[1,2-a]pyrido[3,4-e]pyrimid in-5(1H)-one] was run?
A: Its value is “+ +”.

Q: What about the “Regulatory efficacy 10 μM” value of the same molecule?
A: The value was “+ +”.

Source: patent US20240287071A1, “CLASS OF IMIDAZOLIDINOPYRIMIDONE COMPOUNDS AND USE THEREOF IN TREATMENT OF HSCLPP-MEDIATED DISEASES” (SICHUAN UNIVERSITY, priority 2021, published 2024)
